8 compounds from patent US20040071783A1, “Methods and apparatus for particle formation” (priority 1998, published 2004) can be followed below.

Data set [1] is described as follows: Particle size analysis using the Aerosizer/Aerodisperser system. In kind it is physicochemical. The conditions noted are these: particle size distribution. Here is the method:
Particle size analysis of the product was carried out using the Aerosizer/Aerodisperser system (API, USA).

The next data set can be described thus: Crystallinity by XRPD. It counts as physicochemical. The conditions noted are these: XRPD pattern.
For data set [2] the following is noted: SEM, in comparison.

Consider `CC(C)Cc1ccc(C(C)C(=O)O)cc1` (centres unmarked) [Example 1c, ibuprofen], for which, in data set [1], the “SIZE, 5% UNDER” value turned out to be 3.762 micron; the “SIZE, 10% UNDER” value is 4.462 micron; the “SIZE, 15% UNDER” value was 5.018 micron; the “SIZE, 20% UNDER” value is given as 5.518 micron. In addition, in data set [1], the “SIZE, 25% UNDER” value came to 5.999 micron; the “SIZE, 30% UNDER” value is 6.479 micron; the “SIZE, 35% UNDER” value worked out at 6.966 micron; the “SIZE, 40% UNDER” value was 7.471 micron. Further, in data set [1], the “SIZE, 45% UNDER” value stood at 8.004 micron; the “SIZE, 50% UNDER” value amounted to 8.572 micron; the “SIZE, 55% UNDER” value was determined as 9.186 micron; the “SIZE, 60% UNDER” value stood at 9.849 micron. Also, in data set [1], the “SIZE, 65% UNDER” value is recorded as 10.55 micron; the “SIZE, 70% UNDER” value is recorded as 11.28 micron; the “SIZE, 75% UNDER” value was 12.06 micron; the “SIZE, 80% UNDER” value is 12.92 micron. Moreover, in data set [1], the “SIZE, 85% UNDER” value is given as 13.88 micron; the “SIZE, 90% UNDER” value stood at 14.96 micron; the “SIZE, 95% UNDER” value was 16.35 micron.

Turning to `CC(C)Cc1ccc(C(C)C(=O)O)cc1` (centres unmarked) [Example 1b, ibuprofen], in data set [1], the “SIZE, 5% UNDER” value is on record as 5.920 micron; the “SIZE, 10% UNDER” value was found to be 7.411 micron; the “SIZE, 15% UNDER” value is 8.631 micron; the “SIZE, 20% UNDER” value came out at 9.720 micron. In data set [1], the “SIZE, 25% UNDER” value was 10.75 micron; the “SIZE, 30% UNDER” value came out at 11.72 micron; the “SIZE, 35% UNDER” value came to 12.66 micron; the “SIZE, 40% UNDER” value turned out to be 13.56 micron. For the same compound, in data set [1], the “SIZE, 45% UNDER” value was 14.43 micron; the “SIZE, 50% UNDER” value was determined as 15.30 micron; the “SIZE, 55% UNDER” value was 16.18 micron; the “SIZE, 60% UNDER” value was 17.07 micron. Besides, in data set [1], the “SIZE, 65% UNDER” value came to 17.99 micron; the “SIZE, 70% UNDER” value stood at 18.94 micron; the “SIZE, 75% UNDER” value is recorded as 19.95 micron; the “SIZE, 80% UNDER” value was determined as 21.05 micron. In data set [1], the “SIZE, 85% UNDER” value was found to be 22.25 micron; the “SIZE, 90% UNDER” value is 23.67 micron; the “SIZE, 95% UNDER” value is 25.84 micron.

Turning to `O=C(O)c1ccccc1O` [Example 3b, salicylic acid], the crystallinity entry in “Crystallinity by XRPD” is “crystalline in form”.

`CC(C)Cc1ccc(C(C)C(=O)O)cc1` (centres unmarked) [Example 1a, ibuprofen]: in data set [1], the “SIZE, 5% UNDER” value amounted to 9.241 micron; the “SIZE, 10% UNDER” value is 11.68 micron; the “SIZE, 15% UNDER” value amounted to 13.57 micron; the “SIZE, 20% UNDER” value stood at 15.21 micron. In data set [1], the “SIZE, 25% UNDER” value was found to be 16.74 micron; the “SIZE, 30% UNDER” value is 18.21 micron; the “SIZE, 35% UNDER” value stood at 19.62 micron; the “SIZE, 40% UNDER” value is listed as 20.99 micron. For the same compound, in data set [1], the “SIZE, 45% UNDER” value is reported as 22.30 micron; the “SIZE, 50% UNDER” value was 23.58 micron; the “SIZE, 55% UNDER” value was found to be 24.87 micron; the “SIZE, 60% UNDER” value came to 26.16 micron. Besides, in data set [1], the “SIZE, 65% UNDER” value was determined as 27.48 micron; the “SIZE, 70% UNDER” value is on record as 28.83 micron; the “SIZE, 75% UNDER” value was 30.25 micron; the “SIZE, 80% UNDER” value worked out at 31.76 micron. In addition, in data set [1], the “SIZE, 85% UNDER” value is given as 33.44 micron; the “SIZE, 90% UNDER” value worked out at 35.44 micron; the “SIZE, 95% UNDER” value was 38.65 micron.

`O=C(O)c1ccccc1O` [Example 3a, salicylic acid]: in the data set “Crystallinity by XRPD”, the crystallinity entry is on record as “crystalline”.

Regarding `CC(C(=O)O)c1cccc(C(=O)c2ccccc2)c1` (centres unmarked) [Example 4, ketoprofen], the crystallinity result in the data set “Crystallinity by XRPD” was “confirmed its crystallinity”.

As to `CC(C)Cc1ccc(C(C)C(=O)O)cc1` (centres unmarked) [Example 2, ibuprofen], in data set [1], the “SIZE, 5% UNDER” value worked out at 5.815 micron; the “SIZE, 10% UNDER” value is listed as 7.327 micron; the “SIZE, 15% UNDER” value turned out to be 8.537 micron; the “SIZE, 20% UNDER” value is 9.612 micron. Also, in data set [1], the “SIZE, 25% UNDER” value is reported as 10.62 micron; the “SIZE, 30% UNDER” value came to 11.57 micron; the “SIZE, 35% UNDER” value was 12.49 micron; the “SIZE, 40% UNDER” value was 13.38 micron. Moreover, in data set [1], the “SIZE, 45% UNDER” value turned out to be 14.26 micron; the “SIZE, 50% UNDER” value came out at 15.17 micron; the “SIZE, 55% UNDER” value stood at 16.10 micron; the “SIZE, 60% UNDER” value is 17.06 micron. In data set [1], the “SIZE, 65% UNDER” value came to 18.06 micron; the “SIZE, 70% UNDER” value is 19.10 micron; the “SIZE, 75% UNDER” value stood at 20.20 micron; the “SIZE, 80% UNDER” value is listed as 21.41 micron. For the same compound, in data set [1], the “SIZE, 85% UNDER” value stood at 22.79 micron; the “SIZE, 90% UNDER” value is on record as 24.42 micron; the “SIZE, 95% UNDER” value was found to be 26.78 micron.

As to `O=C(O)c1cccnc1` [Example 5b, nicotinic acid], the “particle size and morphology” value in data set [2] is “comparable particle size and morphology to that of the product of Example 5a”.
